Measurements: patent US20240101521A1, “DIAMINOTRIAZINE COMPOUNDS” (BASF SE, priority 2021, published 2024)

How the values were obtained:
Assay in all cases: greenhouse pre-emergence herbicidal test
Assay type in all cases: in vivo
Conditions in all cases: scale 0 to 100
[1] = tested on: Abutilon theophrasti
Excerpt: (§1) The culture containers used were plastic flowerpots containing loamy sand with approximately 3.0% of humus as the substrate. The seeds of the test plants were sown separately for each species.
(§2) For the pre-emergence treatment, the active ingredients, which had been suspended or emulsified in water, were applied directly after sowing by means of finely distributing nozzles. The containers were irrigated gently to promote germination and growth and subsequently covered with transparent plastic hoods until the plants had rooted. This cover caused uniform germination of the test plants, unless this had been impaired by the active ingredients. For the post-emergence treatment, the test plants were first grown to a height of 3 to 15 cm, depending on the plant habit, and only then treated with the active ingredients which had been suspended or emulsified in water. For this purpose, the test plants were either sown directly and grown in the same containers, or they were first grown separately as seedlings and transplanted into the test containers a few days prior to treatment.
(§3) Depending on the species, the plants were kept at 10-25° C. or 20-35° C., respectively.
(§4) The test period extended over 2 to 4 weeks. During this time, the plants were tended, and their response to the individual treatments was evaluated.
(§5) Evaluation was carried out using a scale from 0 to 100. 100 means no emergence of the plants, or complete destruction of at least the aerial moieties, and 0 means no damage, or normal course of growth. A moderate herbicidal activity is given at values of at least 60, a good herbicidal activity is given at values of at least 70, and a very good herbicidal activity is given at values of at least 85.
(§6) The plants used in the greenhouse experiments were of the following species: […]

[2] = tested on: Setaria faberi
Excerpt: as §1, §2, §3, §4, §5, §6

[3] = tested on: Echinochloa crus-galli
Excerpt: as §1, §2, §3, §4, §5, §6

[4] = tested on: Amaranthus retroflexus
Excerpt: as §1, §2, §3, §4, §5, §6

Row | Structure (SMILES) | herbicidal activity ([1]; pre-emergence, 62,5 g/ha) [%] | herbicidal activity ([4]; pre-emergence, 62,5 g/ha) [%] | herbicidal activity ([3]; pre-emergence, 62,5 g/ha) [%] | herbicidal activity ([2]; pre-emergence, 62,5 g/ha) [%] | further results
1 | COc1c(Br)cc(F)c(F)c1Nc1nc(N)nc(C(C)(C)F)n1 [Example 6, N4-(5-Bromo-2,3-difluoro-6-methoxy-phenyl)-6-(1-fluoro-1-methyl-ethyl)-1,3,5-triazine-2,4-diamine] |  |  |  |  | herbicidal activity ([1]; pre-emergence, 125 g/ha): 100%; herbicidal activity ([2]; pre-emergence, 125 g/ha): 100%; herbicidal activity ([3]; pre-emergence, 125 g/ha): 100%
2 | COc1c(Cl)cc(F)c(F)c1Nc1nc(N)nc(C(C)(C)F)n1 [Example 7, N4-(5-Chloro-2,3-difluoro-6-methoxy-phenyl)-6-(1-fluoro-1-methyl-ethyl)-1,3,5-triazine-2,4-diamine] |  |  |  |  | herbicidal activity ([1]; pre-emergence, 125 g/ha): 100%; herbicidal activity ([2]; pre-emergence, 125 g/ha): 100%; herbicidal activity ([3]; pre-emergence, 125 g/ha): 100%
3 | COc1c(Br)cc(Br)c(F)c1Nc1nc(N)nc(C(C)(C)F)n1 [Example 8] |  |  |  |  | herbicidal activity ([1]; pre-emergence, 125 g/ha): 100%; herbicidal activity ([2]; pre-emergence, 125 g/ha): 100%; herbicidal activity ([3]; pre-emergence, 125 g/ha): 100%
4 | COc1c(Br)cc(Br)c(F)c1Nc1nc(N)nc(C2(F)CCCCC2)n1 [Example 9] |  |  |  |  | herbicidal activity ([1]; pre-emergence, 250 g/ha): 90%; herbicidal activity ([2]; pre-emergence, 250 g/ha): 95%; herbicidal activity ([4]; pre-emergence, 250 g/ha): 100%
5 | COc1c(Cl)cc(F)c(F)c1Nc1nc(N)nc(C2(F)CCCCC2)n1 [Example 10] |  |  |  |  | herbicidal activity ([1]; pre-emergence, 250 g/ha): 100%; herbicidal activity ([2]; pre-emergence, 250 g/ha): 100%; herbicidal activity ([4]; pre-emergence, 250 g/ha): 100%
6 | CC#CCOc1c(Br)cc(F)c(F)c1Nc1nc(N)nc(C2(F)CCCC2)n1 [Example 16] |  |  |  |  | herbicidal activity ([1]; pre-emergence, 250 g/ha): 100%; herbicidal activity ([4]; pre-emergence, 250 g/ha): 100%; herbicidal activity ([3]; pre-emergence, 250 g/ha): 100%
7 | C#CCOc1c(Br)cc(F)c(F)c1Nc1nc(N)nc(C(C)(C)F)n1 [Example 17] |  |  |  |  | herbicidal activity ([1]; pre-emergence, 250 g/ha): 100%; herbicidal activity ([4]; pre-emergence, 250 g/ha): 100%; herbicidal activity ([3]; pre-emergence, 250 g/ha): 100%
8 | CC#CCOc1c(Cl)cc(F)c(F)c1Nc1nc(N)nc(C(C)(C)F)n1 [Example 18] | 100 | 100 | 100 |  | 
9 | CCOc1c(Br)cc(F)c(F)c1Nc1nc(N)nc(C(C)(C)F)n1 [Example 19] | 100 | 100 | 100 |  | 
10 | CCC#CCOc1c(Br)cc(F)c(F)c1Nc1nc(N)nc(C(C)(C)F)n1 [Example 20] | 100 | 100 | 100 |  | 
11 | CC(C)(F)c1nc(N)nc(Nc2c(F)c(F)cc(Br)c2OCC#CC2CC2)n1 [Example 29] |  |  |  |  | herbicidal activity ([1]; pre-emergence, 31 g/ha): 100%; herbicidal activity ([2]; pre-emergence, 31 g/ha): 100%; herbicidal activity ([4]; pre-emergence, 31 g/ha): 100%
12 | CC(C)(F)c1nc(N)nc(Nc2c(F)c(F)cc(Br)c2OC(F)F)n1 [Example 31] |  |  |  |  | herbicidal activity ([1]; pre-emergence, 250 g/ha): 100%; herbicidal activity ([4]; pre-emergence, 250 g/ha): 100%; herbicidal activity ([3]; pre-emergence, 250 g/ha): 100%
13 | COc1c(F)cc(C)c(F)c1Nc1nc(N)nc(C(C)(C)F)n1 [Example 32, N4-(2,5-difluoro-6-methoxy-3-methyl-phenyl)-6-(1-fluoro-1-methyl-ethyl)-1,3,5-triazine-2,4-diamine] | 100 | 100 | 100 |  | 
14 | COc1c(Br)cc(F)c(F)c1Nc1nc(N)nc(C(C)(F)CCl)n1 (stereo not drawn) [Example 33] | 100 | 100 | 98 |  | 
15 | COc1c(Br)cc(F)c(F)c1Nc1nc(N)nc(C(C)(F)F)n1 [Example 50] |  |  |  |  | herbicidal activity ([1]; pre-emergence, 31 g/ha): 80%; herbicidal activity ([2]; pre-emergence, 31 g/ha): 100%; herbicidal activity ([4]; pre-emergence, 31 g/ha): 100%
16 | COc1c(C)cc(Br)c(F)c1Nc1nc(N)nc(C(C)(C)F)n1 [Example 51] |  |  |  |  | herbicidal activity ([1]; pre-emergence, 62 g/ha): 100%; herbicidal activity ([2]; pre-emergence, 62 g/ha): 100%; herbicidal activity ([4]; pre-emergence, 62 g/ha): 100%
17 | CC#CCOc1c(Br)cc(F)c(F)c1Nc1nc(N)nc(C2(F)CC2)n1 [Example 56] | 90 |  | 90 | 100 | 
18 | CC#CCOc1c(Cl)cc(F)c(F)c1Nc1nc(N)nc(C2(F)CC2)n1 [Example 57] |  |  |  |  | herbicidal activity ([1]; pre-emergence, 31 g/ha): 98%; herbicidal activity ([2]; pre-emergence, 31 g/ha): 100%; herbicidal activity ([3]; pre-emergence, 31 g/ha): 100%

Row | Structure (SMILES) | herbicidal activity ([1]; pre-emergence, 62,5 g/ha) [%] | herbicidal activity ([4]; pre-emergence, 62,5 g/ha) [%] | herbicidal activity ([3]; pre-emergence, 62,5 g/ha) [%] | herbicidal activity ([2]; pre-emergence, 62,5 g/ha) [%] | further results
19 | CC#CCOc1c(Cl)cc(F)c(F)c1Nc1nc(N)nc(C2(F)CCCC2)n1 [Example 58] | 100 |  | 100 | 100 | 
20 | COc1c(Cl)cc(Cl)c(F)c1Nc1nc(N)nc(C(C)(C)F)n1 [Example 59] | 100 |  | 95 | 100 | 
21 | CC#CCOc1c(Br)cc(Br)c(F)c1Nc1nc(N)nc(C(C)(C)F)n1 [Example 64] |  |  |  |  | herbicidal activity ([1]; pre-emergence, 62 g/ha): 100%; herbicidal activity ([2]; pre-emergence, 62 g/ha): 100%; herbicidal activity ([3]; pre-emergence, 62 g/ha): 100%
22 | C#CCOc1c(Br)cc(Br)c(F)c1Nc1nc(N)nc(C(C)(C)F)n1 [Example 65] |  |  |  |  | herbicidal activity ([1]; pre-emergence, 62 g/ha): 100%; herbicidal activity ([2]; pre-emergence, 62 g/ha): 100%; herbicidal activity ([3]; pre-emergence, 62 g/ha): 100%
23 | COc1c(Br)cc(F)c(F)c1Nc1nc(N)nc(C2(F)CCCC2)n1 [Example 81] |  |  |  |  | herbicidal activity ([1]; pre-emergence, 62 g/ha): 100%; herbicidal activity ([2]; pre-emergence, 62 g/ha): 100%; herbicidal activity ([3]; pre-emergence, 62 g/ha): 100%
24 | CC#CCOc1c(Cl)cc(F)c(F)c1Nc1nc(N)nc(C(C)(F)CCl)n1 (stereo not drawn) [Example 84] |  |  |  |  | herbicidal activity ([1]; pre-emergence, 62 g/ha): 100%; herbicidal activity ([2]; pre-emergence, 62 g/ha): 100%; herbicidal activity ([3]; pre-emergence, 62 g/ha): 100%
25 | CC#CCOc1c(Br)cc(F)c(F)c1Nc1nc(N)nc(C(C)(C)OC)n1 [Example 85] |  |  |  |  | herbicidal activity ([1]; pre-emergence, 62 g/ha): 85%; herbicidal activity ([2]; pre-emergence, 62 g/ha): 98%; herbicidal activity ([3]; pre-emergence, 62 g/ha): 100%
26 | C#CC(C)Oc1c(Cl)cc(F)c(F)c1Nc1nc(N)nc(C(C)(C)F)n1 (stereo not drawn) [Example 99] |  |  |  |  | herbicidal activity ([1]; pre-emergence, 62 g/ha): 100%; herbicidal activity ([2]; pre-emergence, 62 g/ha): 100%; herbicidal activity ([4]; pre-emergence, 62 g/ha): 100%
27 | C#CC(C)Oc1c(F)cc(F)c(F)c1Nc1nc(N)nc(C2(F)CCCC2)n1 (stereo not drawn) [Example 105] | 100 |  | 100 | 100 | 
28 | CC(C)(F)c1nc(N)nc(Nc2c(F)c(F)cc(Br)c2OCF)n1 [Example 106] | 100 |  | 100 | 100 | 
29 | Nc1nc(Nc2c(F)c(F)cc(F)c2OCF)nc(C2(F)CCCC2)n1 [Example 107] | 100 |  | 100 | 100 | 
30 | C#CCOc1c(Cl)cc(F)c(F)c1Nc1nc(N)nc(C2(F)CCCCC2)n1 [Example 112] |  | 95 | 95 | 90 | 
31 | COc1c(Cl)cc(F)c(F)c1Nc1nc(N)nc(C(C)(F)CBr)n1 (stereo not drawn) [Example 114] | 100 | 100 |  | 100 | 
32 | CCC(C)(F)c1nc(N)nc(Nc2c(F)c(F)cc(Br)c2OC)n1 (stereo not drawn) [Example 117] | 98 | 100 |  | 100 | 
33 | C#CC(C)(F)c1nc(N)nc(Nc2c(F)c(F)cc(Cl)c2OC)n1 (stereo not drawn) [Example 118] | 100 | 100 |  | 100 | 
34 | C=CC(C)(F)c1nc(N)nc(Nc2c(F)c(F)cc(Br)c2OC)n1 (stereo not drawn) [Example 121] | 100 | 100 |  | 100 | 
35 | C=CC(C)(F)c1nc(N)nc(Nc2c(F)c(F)cc(Cl)c2OC)n1 (stereo not drawn) [Example 122] | 100 | 100 |  | 100 | 
36 | COc1c(Cl)c(F)c(F)c(F)c1Nc1nc(N)nc(C(C)(C)C)n1 [Example 162] | 95 |  | 95 | 100 | 
